In US20260297081A1, “COMPOUNDS AND METHODS OF TREATING CANCERS” (Cullgen Inc., priority 2023, published 2026):

Legend:
Format in all cases: cell-based
Calu-1 cells = assay: Anti-proliferation (viability) of NSCLC Calu-1 cells, 3 days (Table 7, FIG. 2B); conditions: Homo sapiens, 72 h; Calu-1 cells, 3 days, 10-point serial dilution; read-out: GI IC50 in Calu-1
Method in brief: (§1)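 Heterobifunctional compounds are tested in 10-point serial dilutions on Calu-1 (3-day exposure) and T47D (6-day exposure) cells.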

T47D cells = assay: Anti-proliferation (viability) of ER+ breast cancer T47D cells, 6 days (Table 7, FIG. 2B); conditions: Homo sapiens, 144 h; T47D cells, 6 days, 10-point serial dilution; read-out: GI IC50 in T47D
Method in brief: as §1

MCF7 cells = assay: Anti-proliferation (viability) of MCF7 cells (Table 7, FIG. 2B); conditions: Homo sapiens, MCF7, MCF7 cells, 3-6 days, 10-point serial dilution; read-out: GI IC50 in MCF-7
CDK4 = CDK4 (Homo sapiens, UniProt P11802+Q16531); assay: CDK4 percentage degradation in Calu-1 cells (Table 6); set-up: Cells that express cyclin D1-3 and CDK4/6 proteins were treated with heterobifunctional compounds; endogenous in cells; host or cells: Calu-1; conditions: 16 hours; for inhibition at 0.04 µM: 40 nM; for inhibition at 0.2 µM: 200 nM
Method in brief: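 Percentage degradation of Cyclin D1 and CDK4 derived from densitometry of ECL Western blots on lysates of Calu-1 cells. Treatment was 16 h with compound at either 40 nM or 200 nM.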

CDK4, sequence (P11802 2-303 limits assumed): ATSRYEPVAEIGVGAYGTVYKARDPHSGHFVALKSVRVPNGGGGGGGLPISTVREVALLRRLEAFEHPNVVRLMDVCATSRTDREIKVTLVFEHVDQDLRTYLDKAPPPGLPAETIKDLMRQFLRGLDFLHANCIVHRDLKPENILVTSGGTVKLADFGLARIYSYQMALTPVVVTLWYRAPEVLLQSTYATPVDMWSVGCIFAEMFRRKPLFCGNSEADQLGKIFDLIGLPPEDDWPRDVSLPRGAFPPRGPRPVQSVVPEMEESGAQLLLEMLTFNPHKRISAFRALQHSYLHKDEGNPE
CDK4, sequence (P24385 whole entry partner): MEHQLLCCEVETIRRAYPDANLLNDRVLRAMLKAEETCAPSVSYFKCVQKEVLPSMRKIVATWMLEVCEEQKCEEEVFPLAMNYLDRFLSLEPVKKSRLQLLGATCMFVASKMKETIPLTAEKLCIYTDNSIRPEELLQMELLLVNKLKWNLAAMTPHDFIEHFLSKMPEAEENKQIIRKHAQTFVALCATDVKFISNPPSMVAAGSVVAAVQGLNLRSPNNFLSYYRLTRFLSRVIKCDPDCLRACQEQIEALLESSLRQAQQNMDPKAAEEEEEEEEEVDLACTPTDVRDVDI
CDK4, sequence (Q16531 2-1140 limits assumed): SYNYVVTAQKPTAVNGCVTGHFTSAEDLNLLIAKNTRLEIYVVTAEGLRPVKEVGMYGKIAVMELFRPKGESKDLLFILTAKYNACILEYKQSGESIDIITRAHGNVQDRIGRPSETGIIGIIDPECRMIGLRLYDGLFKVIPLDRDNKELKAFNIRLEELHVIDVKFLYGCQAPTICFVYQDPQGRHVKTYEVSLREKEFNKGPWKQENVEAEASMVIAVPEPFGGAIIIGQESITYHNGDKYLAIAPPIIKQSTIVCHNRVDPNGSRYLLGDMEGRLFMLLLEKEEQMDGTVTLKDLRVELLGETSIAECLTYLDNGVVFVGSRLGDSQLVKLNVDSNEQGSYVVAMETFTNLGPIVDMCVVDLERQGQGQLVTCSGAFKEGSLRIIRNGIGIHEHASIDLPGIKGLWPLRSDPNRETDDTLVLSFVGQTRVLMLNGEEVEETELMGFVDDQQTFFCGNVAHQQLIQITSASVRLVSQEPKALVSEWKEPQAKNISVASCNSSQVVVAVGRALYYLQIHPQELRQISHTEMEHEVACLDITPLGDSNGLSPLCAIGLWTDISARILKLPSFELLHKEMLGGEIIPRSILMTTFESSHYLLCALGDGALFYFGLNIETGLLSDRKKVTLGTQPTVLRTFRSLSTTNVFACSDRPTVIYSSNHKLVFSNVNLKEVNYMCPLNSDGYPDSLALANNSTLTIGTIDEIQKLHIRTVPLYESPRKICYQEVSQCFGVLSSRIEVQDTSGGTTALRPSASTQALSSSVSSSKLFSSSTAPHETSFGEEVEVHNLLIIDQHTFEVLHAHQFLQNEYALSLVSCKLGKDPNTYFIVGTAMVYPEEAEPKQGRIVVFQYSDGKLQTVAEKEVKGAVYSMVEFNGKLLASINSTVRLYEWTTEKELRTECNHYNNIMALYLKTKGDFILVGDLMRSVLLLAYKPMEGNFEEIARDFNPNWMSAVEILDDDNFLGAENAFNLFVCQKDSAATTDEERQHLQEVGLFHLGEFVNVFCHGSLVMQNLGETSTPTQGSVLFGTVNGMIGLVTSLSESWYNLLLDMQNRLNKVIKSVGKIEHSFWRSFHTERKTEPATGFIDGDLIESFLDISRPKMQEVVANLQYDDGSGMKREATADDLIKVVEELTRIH

SMILES | IC50 (Calu-1 cells) | IC50 (T47D cells) | IC50 (MCF7 cells) | inhibition at 0.04 µM (CDK4) | inhibition at 0.2 µM (CDK4)
CNc1ccc(C(=O)Nc2cc(C)n(C)n2)c(NC2CC3(C2)CN(C(=O)CCN2CCN(c4ccc(Nc5ncc6c(C)c(C(C)=O)c(=O)n(C7CCCC7)c6n5)nc4)CC2)C3)n1 [CPD-129, 2-((2-(3-(4-(6-((6-Acetyl-8-cyclopentyl-5-methyl-7-oxo-7,8-dihydropyrido[2,3-d]pyrimidin-2-yl)amino)pyridin-3-yl)piperazin-1-yl)propanoyl)-2-azaspiro[3.3]heptan-6-yl)amino)-N-(1,5-dimethyl-1H-pyrazol-3-yl)-6-(methylamino)nicotinamide] | ≤ 10 nM | 50 to 100 nM | > 100 nM | 50 to 80% | 50 to 80%
CNc1ccc(C(=O)Nc2cn(C)c(C3CC3)n2)c(NC2CC3(CC(NC(=O)CN4CCN(c5ccc(Nc6ncc7c(C)c(C(C)=O)c(=O)n(C8CCCC8)c7n6)nc5)CC4)C3)C2)n1 (centres unmarked) [CPD-135, 2-((6-(2-(4-(6-((6-Acetyl-8-cyclopentyl-5-methyl-7-oxo-7,8-dihydropyrido[2,3-d]pyrimidin-2-yl)amino)pyridin-3-yl)piperazin-1-yl)acetamido)spiro[3.3]heptan-2-yl)amino)-N-(2-cyclopropyl-1-methyl-1H-imidazol-4-yl)-6-(methylamino)nicotinamide] | 10 to 50 nM | ≥ 100 nM | < 50 nM | 30 to 50% | 50 to 80%
CNc1ccc(C(=O)Nc2ccc(N(C)C)nn2)c(NC2CCC(CCNC(=O)CN3CCN(c4ccc(Nc5ncc6c(C)c(C(C)=O)c(=O)n(C7CCCC7)c6n5)nc4)CC3)C2)n1 (centres unmarked) [CPD-136, 2-((3-(2-(2-(4-(6-((6-Acetyl-8-cyclopentyl-5-methyl-7-oxo-7,8-dihydropyrido[2,3-d]pyrimidin-2-yl)amino)pyridin-3-yl)piperazin-1-yl)acetamido)ethyl)cyclopentyl)amino)-N-(6-(dimethylamino)pyridazin-3-yl)-6-(methylamino)nicotinamide] | ≤ 10 nM | 50 to 100 nM | > 100 nM | 50 to 80% | 50 to 80%
CNc1ccc(C(=O)Nc2cccc(C)n2)c(NC2CC3(C2)CN(C(=O)CCN2CCN(c4ccc(Nc5ncc6c(C)c(C(C)=O)c(=O)n(C7CCCC7)c6n5)nc4)CC2)C3)n1 [CPD-155, 2-((2-(3-(4-(6-((6-acetyl-8-cyclopentyl-5-methyl-7-oxo-7,8-dihydropyrido[2,3-d]pyrimidin-2-yl)amino)pyridin-3-yl)piperazin-1-yl)propanoyl)-2-azaspiro[3.3]heptan-6-yl)amino)-6-(methylamino)-N-(6-methylpyridin-2-yl)nicotinamide] | ≤ 10 nM | 50 to 100 nM | > 100 nM | 50 to 80% | > 80%
